According to ChEMBL document CHEMBL1201862, “PubChem BioAssay data set” (2004):
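How tested: cells in 96-well plates exposed to compound for 48 hours at five concentrations. Abbreviation: GI50, concentration required for 50% inhibition of growth.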 Activity calls are given as the source filed them. No stated cut-off is given here; in the data, active = GI50 up to about 1.1 µM and inactive = higher.

Experiments:
Assay in all cases: growth of human tumour cells (NCI), 48 h
K562 = test system: K562
NCI-H460 = test system: NCI-H460
MOLT-4 = test system: MOLT-4
A549 = test system: A549
SN12C = test system: SN12C
OVCAR-8 = test system: OVCAR-8
HOP-62 = test system: HOP-62
SK-MEL-28 = test system: SK-MEL-28
HL-60 = test system: HL-60
BT-549 = test system: BT-549
SR = test system: SR
NCI/ADR-RES = test system: NCI/ADR-RES
Hs-578T = test system: Hs-578T
SF-295 = test system: SF-295
SK-MEL-5 = test system: SK-MEL-5
CCRF-CEM = test system: CCRF-CEM
UACC-62 = test system: UACC-62
NCI-H23 = test system: NCI-H23
LOX IMVI = test system: LOX IMVI
T47D = test system: T47D

Measured: GI50

O=C(O)CSCC(=O)O
inactive: K562 > 100 µM | NCI-H460 > 100 µM | MOLT-4 > 100 µM | A549 > 100 µM | SN12C > 100 µM | OVCAR-8 > 100 µM | HOP-62 > 100 µM | SK-MEL-28 > 100 µM | HL-60 > 100 µM | BT-549 > 100 µM | SR > 100 µM | NCI/ADR-RES > 100 µM | Hs-578T > 100 µM | SF-295 > 100 µM | SK-MEL-5 > 100 µM | CCRF-CEM > 100 µM | UACC-62 > 100 µM | NCI-H23 > 100 µM | LOX IMVI > 100 µM

CCCNC(=S)N/C=C1\C(=O)Nc2ccccc2C1=O
inactive: K562 > 100 µM | NCI-H460 > 100 µM | MOLT-4 > 100 µM | A549 > 100 µM | SN12C > 100 µM | OVCAR-8 > 100 µM | HOP-62 > 100 µM | HL-60 > 100 µM | BT-549 > 100 µM | NCI/ADR-RES > 100 µM | Hs-578T > 100 µM | SF-295 > 100 µM | SK-MEL-5 > 100 µM | T47D > 100 µM | CCRF-CEM > 100 µM | UACC-62 > 100 µM | NCI-H23 > 100 µM | LOX IMVI > 100 µM

Cc1ccc2c(=O)c(-c3nnc(NC4CCCCC4)s3)c[nH]c2n1
inactive: K562 > 100 µM | NCI-H460 > 100 µM | MOLT-4 61 µM | A549 > 100 µM | SN12C > 100 µM | OVCAR-8 > 100 µM | HOP-62 > 100 µM | SK-MEL-28 > 100 µM | HL-60 > 100 µM | BT-549 > 100 µM | NCI/ADR-RES > 100 µM | Hs-578T > 100 µM | SF-295 81.7 µM | SK-MEL-5 40.9 µM | T47D 50 µM | CCRF-CEM > 100 µM | UACC-62 > 100 µM | NCI-H23 > 100 µM | LOX IMVI > 100 µM

CC(=O)N1N(c2ccc([N+](=O)[O-])cc2)C(=O)C1(C)C
inactive: K562 17 µM | NCI-H460 29.4 µM | MOLT-4 15.5 µM | A549 > 10 µM | SN12C 16.5 µM | OVCAR-8 23.2 µM | HOP-62 19.3 µM | SK-MEL-28 17.9 µM | BT-549 11.9 µM | NCI/ADR-RES 30.8 µM | Hs-578T 33.5 µM | SF-295 31.4 µM | SK-MEL-5 16.9 µM | T47D 39.3 µM | CCRF-CEM 7.08 µM | UACC-62 18.5 µM | NCI-H23 16.7 µM | LOX IMVI 11.6 µM

O=c1[nH]nc(Cc2ccc([N+](=O)[O-])cc2)n1CCO
inactive: K562 > 100 µM | NCI-H460 > 100 µM | A549 > 100 µM | SN12C > 100 µM | OVCAR-8 > 100 µM | SK-MEL-28 > 100 µM | HL-60 > 100 µM | BT-549 > 100 µM | NCI/ADR-RES > 100 µM | Hs-578T > 100 µM | SF-295 > 100 µM | SK-MEL-5 > 100 µM | T47D > 100 µM | UACC-62 > 100 µM | NCI-H23 > 100 µM | LOX IMVI > 100 µM
